Assay results reported in patent US20250281457A1, “TREATMENT OR PREVENTION OF DENGUE VIRAL INFECTION” (Janssen Pharmaceuticals, Inc., priority 2022, published 2025).
Marks after values point to notes of the source that are not given here.

Key:
Assay type in all cases: in vivo, human
[1] = Safety and tolerability, adverse events (Example 1)
Description: Safety and tolerability of Compound (a) was evaluated throughout the study, by recording the adverse events (AE) and their grade, as reported by the participants. An AE is any untoward medical occurrence in a subject administered the pharmaceutical formulation comprising Compound (a). […] An AE can therefore be any unfavorable and unintended sign (including an abnormal finding), symptom, or disease temporally associated with the use of the pharmaceutical formulation comprising Compound (a), whether or not related to the administration of the pharmaceutical formulation comprising Compound (a) (definition per International Conference on Harmonisation [ICH].) This includes any occurrence that is new in onset or aggravated in severity or frequency from the baseline condition, or abnormal results of diagnostic procedures, including laboratory test abnormalities. Grade refers to the severity of the AE, according to the below guideline: • Grade 1 Mild: transient or mild discomfort (<48 hours); no medical intervention/therapy required. • Grade 2 Moderate: mild to moderate limitation in activity; some assistance may be needed; no or minimal medical intervention/therapy required. • Grade 3 Severe: marked limitation in activity; some assistance usually required; medical intervention/therapy required; hospitalizations possible. • Grade 4 Potentially Life-threatening: Extreme limitation in activity; significant assistance required; significant medical intervention/therapy required; hospitalization or hospice care probable. All reported AEs with onset during the treatment phase and AEs that have worsened since baseline (ie, treatment-emergent AEs (TEAEs)) were included in the analysis.

[2] = Safety and tolerability, TEAEs (Example 2)
Description: (§1) Safety and tolerability of Compound (a) was evaluated throughout the study, as described in Example 1.

[3] = Safety and tolerability, adverse events (Example 5)
Description: as §1

[4] = Panel 1 (400 mg fasted: Treatment A oral solution and Treatment B SF1b)
[5] = Panels 1 and 2 (400 mg fasted; oral solution, SF1b, SF2b)

## COc1cc(NC(C(=O)c2c[nH]c3ccc(OC(F)(F)F)cc23)c2ccc(Cl)cc2OC)cc(S(C)(=O)=O)c1 (stereo not shown) [Compound (a)]
[1]; [4]
  Related adverse events, Grade 1: two Grade 1 AEs of throat irritation and dermatitis on one subject, and throat irritation and dermaturia in another subject
  Related adverse events, Grade 2: one Grade 2 AE of headache and dermatitis
[1]; Panel 2 (400 mg fasted: Treatment A oral solution and Treatment C SF2b)
  Related adverse events, Grade 1: two Grade 1 AEs of headache and dermatitis each in one subject
[1]; [5]
  Grade 1 Treatment Emergent Events, overall: 11
  Grade 2 Treatment Emergent Events, overall: 7
  Grade 3 Treatment Emergent Events, overall: One
  Grade 4 Treatment Emergent Events, overall: No
[2]; Panel 3, Treatment D (800 mg, fasted)
  at least 1 TEAE reported: 9 (69.2%) # Participants (%)
[2]; Panel 3, Treatment E (800 mg, fed, standardized breakfast)
  at least 1 TEAE reported: 6 (40.0%) # Participants (%)
[2]; Panel 4, Treatment F (200 mg, fasted)
  at least 1 TEAE reported: 6 (46.2%) # Participants (%)
[2]; Panel 4, Treatment G (200 mg, fed, standardized breakfast)
  at least 1 TEAE reported: 7 (58.3%) # Participants (%)
[2]; Panel 5, Treatment H (50 mg, fasted)
  at least 1 TEAE reported: 5 (38.5%) # Participants (%)
[2]; Panel 5, Treatment I (50 mg, fed, standardized breakfast)
  at least 1 TEAE reported: 8 (66.7%) # Participants (%)
[2]; single doses 50-800 mg SF2a/b, fasted or fed
  Safety and tolerability, overall conclusion: safe and well tolerated
[3]; Panel I (LD 450 mg twice daily for two days, MD 900 mg Q7D)
  Related adverse events: no related AEs
[3]; Panel II (LD 450 mg twice daily for two days, MD 450 mg Q3D or Q4D)
  Related adverse events: one Grade 1 AE of skin burning sensation considered related
[3]; Panel III (LD 150 mg twice daily for two days, MD 300 mg Q7D)
  Related adverse events: no related AEs
[3]; Panel IV (LD 150 mg twice daily for two days, MD 150 mg Q3D or Q4D)
  Related adverse events: two Grade 1 AE of pruritic rash considered related
[3]; Panels I-IV
  Grade 2 Treatment Emergent Events, overall: 4
  Grade 3 Treatment Emergent Events, overall: No
  Safety and tolerability, overall conclusion: safe and well tolerated
  serious adverse events (SAEs) or/and serious unexpected adverse reactions (SUSARs) observed: No
